Assay results from ChEMBL document CHEMBL1821675, “The selective P-TEFb inhibitor CAN508 targets angiogenesis” (Eur J Med Chem, 2011).
Active and inactive are the calls of the source. The calls are words filed in the database; no cut-off is given here.

How the values were obtained:
[1] = test system: T47D; test: Cytotoxicity against human T47D cells; assay type: functional
[2] = test system: SNB-75; test: Cytotoxicity against human SNB75 cells; assay type: functional
[3] = test system: SK-OV-3; test: Cytotoxicity against human SKOV3 cells; assay type: functional
[4] = test system: HMEC-1; test: Antiangiogenic activity in VEGF-stimulated HMEC1 assessed as reduction in tube nodes after 16 hrs by photographic analysis; assay type: functional; conditions: Homo sapiens
[5] = biological target: CDK9/cyclin T1 (Homo sapiens) (UniProt O60563+P50750); test: Inhibition of CDK9/cyclin T assessed as residual activity at 10 uM by radioactivity assay in presence of 50 uM ATP; assay type: protein-complex assay
[6] = biological target: Casein kinase I isoform delta (Homo sapiens) (UniProt P48730); test: Inhibition of CK1delta assessed as residual activity at 10 uM by radioactivity assay in presence of 20 uM ATP
[7] = biological target: Ephrin type-A receptor 2 (Homo sapiens) (UniProt P29317); test: Inhibition of EPHA2 assessed as residual activity at 10 uM by radioactivity assay in presence of 50 uM ATP
[8] = biological target: Ephrin type-A receptor 4 (Homo sapiens) (UniProt P54764); test: Inhibition of EPHA4 assessed as residual activity at 10 uM by radioactivity assay in presence of 50 uM ATP
[9] = biological target: Mitogen-activated protein kinase 3 (Homo sapiens) (UniProt P27361); test: Inhibition of ERK1 assessed as residual activity at 10 uM by radioactivity assay in presence of 5 uM ATP
[10] = biological target: MAP/microtubule affinity-regulating kinase 4 (Homo sapiens) (UniProt Q96L34); test: Inhibition of MARK4 assessed as residual activity at 10 uM by radioactivity assay in presence of 50 uM ATP
[11] = biological target: Mitogen-activated protein kinase kinase kinase 9 (Homo sapiens) (UniProt P80192); test: Inhibition of MLK1 assessed as residual activity at 10 uM by radioactivity assay in presence of 20 uM ATP
[12] = biological target: Mitogen-activated protein kinase kinase kinase 11 (Homo sapiens) (UniProt Q16584); test: Inhibition of MLK3 assessed as residual activity at 10 uM by radioactivity assay in presence of 20 uM ATP
[13] = biological target: Mitogen-activated protein kinase 11 (Homo sapiens) (UniProt Q15759); test: Inhibition of p38beta MAPK assessed as residual activity at 10 uM by radioactivity assay in presence of 20 uM ATP
[14] = biological target: Serine/threonine-protein kinase PAK 6 (Homo sapiens) (UniProt Q9NQU5); test: Inhibition of PAK6 assessed as residual activity at 10 uM by radioactivity assay in presence of 20 uM ATP
[15] = biological target: Serine/threonine-protein kinase PLK1 (Homo sapiens) (UniProt P53350); test: Inhibition of PLK1 assessed as residual activity at 10 uM by radioactivity assay in presence of 5 uM ATP
[16] = biological target: Proto-oncogene tyrosine-protein kinase Src (Homo sapiens) (UniProt P12931); test: Inhibition of Src assessed as residual activity at 10 uM by radioactivity assay in presence of 50 uM ATP
Sequence of Proto-oncogene tyrosine-protein kinase Src (Homo sapiens) (P12931 2-536 limits assumed): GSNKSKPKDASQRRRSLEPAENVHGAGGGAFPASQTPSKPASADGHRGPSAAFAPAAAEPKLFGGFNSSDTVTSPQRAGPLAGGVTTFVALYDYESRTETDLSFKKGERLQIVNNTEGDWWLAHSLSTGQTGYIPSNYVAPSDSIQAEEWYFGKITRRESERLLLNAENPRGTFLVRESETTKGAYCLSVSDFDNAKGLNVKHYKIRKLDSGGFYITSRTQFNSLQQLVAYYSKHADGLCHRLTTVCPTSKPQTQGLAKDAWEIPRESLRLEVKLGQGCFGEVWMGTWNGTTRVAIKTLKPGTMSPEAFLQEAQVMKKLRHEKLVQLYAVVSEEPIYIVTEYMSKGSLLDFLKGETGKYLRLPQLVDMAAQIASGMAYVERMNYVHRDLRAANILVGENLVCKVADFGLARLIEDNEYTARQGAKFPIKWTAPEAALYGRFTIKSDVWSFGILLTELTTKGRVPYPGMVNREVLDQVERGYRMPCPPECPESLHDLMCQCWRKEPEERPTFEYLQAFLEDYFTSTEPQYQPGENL

Sequence of Ephrin type-A receptor 4 (Homo sapiens) (P54764 whole entry): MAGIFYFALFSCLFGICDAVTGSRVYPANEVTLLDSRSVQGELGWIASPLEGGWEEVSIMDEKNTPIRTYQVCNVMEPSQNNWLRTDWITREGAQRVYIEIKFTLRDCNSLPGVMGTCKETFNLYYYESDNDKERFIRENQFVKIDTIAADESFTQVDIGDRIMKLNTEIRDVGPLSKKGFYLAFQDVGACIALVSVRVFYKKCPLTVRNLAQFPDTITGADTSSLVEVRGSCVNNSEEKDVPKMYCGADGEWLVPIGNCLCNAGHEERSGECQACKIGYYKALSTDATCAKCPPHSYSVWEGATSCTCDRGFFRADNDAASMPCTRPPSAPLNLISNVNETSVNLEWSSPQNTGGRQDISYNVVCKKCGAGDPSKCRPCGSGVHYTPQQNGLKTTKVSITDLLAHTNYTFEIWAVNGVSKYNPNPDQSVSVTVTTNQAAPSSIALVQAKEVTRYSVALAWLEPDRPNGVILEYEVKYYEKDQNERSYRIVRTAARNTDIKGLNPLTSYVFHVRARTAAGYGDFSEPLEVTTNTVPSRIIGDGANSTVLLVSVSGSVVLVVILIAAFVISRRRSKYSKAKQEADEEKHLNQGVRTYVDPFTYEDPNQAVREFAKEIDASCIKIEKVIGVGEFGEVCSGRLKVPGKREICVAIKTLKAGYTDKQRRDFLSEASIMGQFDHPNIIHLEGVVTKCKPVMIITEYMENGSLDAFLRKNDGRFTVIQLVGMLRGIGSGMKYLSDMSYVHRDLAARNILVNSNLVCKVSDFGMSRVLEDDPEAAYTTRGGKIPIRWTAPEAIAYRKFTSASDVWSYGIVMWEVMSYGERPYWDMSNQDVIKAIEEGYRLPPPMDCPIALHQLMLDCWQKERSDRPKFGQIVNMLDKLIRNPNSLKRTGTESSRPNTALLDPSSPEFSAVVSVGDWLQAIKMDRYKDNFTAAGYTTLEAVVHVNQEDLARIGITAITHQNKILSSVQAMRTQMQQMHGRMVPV
Sequence of MAP/microtubule affinity-regulating kinase 4 (Homo sapiens) (Q96L34 whole entry): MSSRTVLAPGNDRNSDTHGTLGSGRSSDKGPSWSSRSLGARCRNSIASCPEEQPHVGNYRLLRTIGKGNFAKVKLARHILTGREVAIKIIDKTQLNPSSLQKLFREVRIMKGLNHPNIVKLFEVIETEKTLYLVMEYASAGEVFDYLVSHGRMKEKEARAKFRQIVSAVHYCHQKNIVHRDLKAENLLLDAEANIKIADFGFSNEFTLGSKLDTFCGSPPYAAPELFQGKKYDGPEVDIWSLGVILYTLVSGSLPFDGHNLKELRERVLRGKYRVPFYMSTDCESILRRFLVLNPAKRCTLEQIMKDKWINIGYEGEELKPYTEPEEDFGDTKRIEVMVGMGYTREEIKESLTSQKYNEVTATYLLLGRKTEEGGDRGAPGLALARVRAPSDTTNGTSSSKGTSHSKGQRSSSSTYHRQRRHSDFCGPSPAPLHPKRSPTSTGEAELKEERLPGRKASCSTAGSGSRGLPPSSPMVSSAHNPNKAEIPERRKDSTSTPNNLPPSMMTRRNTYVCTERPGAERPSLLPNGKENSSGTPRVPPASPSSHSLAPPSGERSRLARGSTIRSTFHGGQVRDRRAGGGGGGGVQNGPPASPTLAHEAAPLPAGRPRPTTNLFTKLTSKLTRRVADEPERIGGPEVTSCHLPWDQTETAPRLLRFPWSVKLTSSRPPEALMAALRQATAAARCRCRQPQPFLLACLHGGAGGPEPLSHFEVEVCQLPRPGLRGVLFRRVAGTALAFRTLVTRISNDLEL
Sequence of Casein kinase I isoform delta (Homo sapiens) (P48730 whole entry, looked up, canonical isoform): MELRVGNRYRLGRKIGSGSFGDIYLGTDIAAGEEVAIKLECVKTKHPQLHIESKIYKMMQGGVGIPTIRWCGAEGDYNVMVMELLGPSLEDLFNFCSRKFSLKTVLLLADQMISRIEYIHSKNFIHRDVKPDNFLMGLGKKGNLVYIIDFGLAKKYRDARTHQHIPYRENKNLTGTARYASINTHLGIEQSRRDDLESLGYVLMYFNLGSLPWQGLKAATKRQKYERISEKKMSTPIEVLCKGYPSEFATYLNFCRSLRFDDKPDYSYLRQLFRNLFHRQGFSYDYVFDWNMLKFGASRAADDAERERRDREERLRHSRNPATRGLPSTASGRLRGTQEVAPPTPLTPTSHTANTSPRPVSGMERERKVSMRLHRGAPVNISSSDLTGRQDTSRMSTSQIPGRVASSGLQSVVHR
Sequence of Serine/threonine-protein kinase PLK1 (Homo sapiens) (P53350 whole entry): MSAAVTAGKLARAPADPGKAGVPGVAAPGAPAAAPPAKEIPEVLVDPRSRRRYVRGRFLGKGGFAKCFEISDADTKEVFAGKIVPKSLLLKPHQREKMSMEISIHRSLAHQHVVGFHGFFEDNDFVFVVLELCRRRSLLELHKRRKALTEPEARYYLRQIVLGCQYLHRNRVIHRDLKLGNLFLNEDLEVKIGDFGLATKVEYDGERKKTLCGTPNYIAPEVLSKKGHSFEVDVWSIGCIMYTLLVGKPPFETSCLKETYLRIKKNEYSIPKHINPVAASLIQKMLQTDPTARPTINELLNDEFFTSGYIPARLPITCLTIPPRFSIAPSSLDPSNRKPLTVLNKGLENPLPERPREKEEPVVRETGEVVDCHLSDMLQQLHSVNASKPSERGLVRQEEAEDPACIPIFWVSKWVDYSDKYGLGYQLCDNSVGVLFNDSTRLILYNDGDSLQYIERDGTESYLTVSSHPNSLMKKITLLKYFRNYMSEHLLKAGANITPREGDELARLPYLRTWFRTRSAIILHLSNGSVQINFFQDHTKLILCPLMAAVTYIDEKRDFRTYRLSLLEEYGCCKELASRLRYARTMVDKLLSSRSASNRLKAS
Sequence of Mitogen-activated protein kinase kinase kinase 11 (Homo sapiens) (Q16584 whole entry, looked up): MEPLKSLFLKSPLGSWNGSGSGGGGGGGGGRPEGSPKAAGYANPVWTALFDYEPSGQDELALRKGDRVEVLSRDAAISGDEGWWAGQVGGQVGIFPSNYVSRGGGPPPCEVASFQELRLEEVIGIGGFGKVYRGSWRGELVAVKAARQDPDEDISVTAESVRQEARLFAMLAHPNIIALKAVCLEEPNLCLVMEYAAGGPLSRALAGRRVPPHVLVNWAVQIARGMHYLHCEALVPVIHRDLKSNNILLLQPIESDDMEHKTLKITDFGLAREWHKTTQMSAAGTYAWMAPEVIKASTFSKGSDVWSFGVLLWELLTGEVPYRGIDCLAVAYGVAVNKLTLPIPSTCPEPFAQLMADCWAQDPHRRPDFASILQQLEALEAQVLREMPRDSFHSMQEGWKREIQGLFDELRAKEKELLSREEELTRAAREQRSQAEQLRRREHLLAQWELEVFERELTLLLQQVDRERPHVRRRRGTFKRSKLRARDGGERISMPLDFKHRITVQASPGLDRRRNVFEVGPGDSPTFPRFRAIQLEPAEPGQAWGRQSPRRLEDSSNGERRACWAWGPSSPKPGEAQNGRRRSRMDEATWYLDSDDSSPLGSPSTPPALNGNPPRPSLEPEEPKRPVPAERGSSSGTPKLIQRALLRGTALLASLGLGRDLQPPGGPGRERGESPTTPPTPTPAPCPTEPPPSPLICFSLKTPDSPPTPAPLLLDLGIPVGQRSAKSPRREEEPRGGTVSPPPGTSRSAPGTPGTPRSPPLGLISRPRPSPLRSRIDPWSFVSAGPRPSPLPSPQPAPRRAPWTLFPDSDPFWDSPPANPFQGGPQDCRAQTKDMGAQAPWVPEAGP
Sequence of Serine/threonine-protein kinase PAK 6 (Homo sapiens) (Q9NQU5 whole entry, looked up): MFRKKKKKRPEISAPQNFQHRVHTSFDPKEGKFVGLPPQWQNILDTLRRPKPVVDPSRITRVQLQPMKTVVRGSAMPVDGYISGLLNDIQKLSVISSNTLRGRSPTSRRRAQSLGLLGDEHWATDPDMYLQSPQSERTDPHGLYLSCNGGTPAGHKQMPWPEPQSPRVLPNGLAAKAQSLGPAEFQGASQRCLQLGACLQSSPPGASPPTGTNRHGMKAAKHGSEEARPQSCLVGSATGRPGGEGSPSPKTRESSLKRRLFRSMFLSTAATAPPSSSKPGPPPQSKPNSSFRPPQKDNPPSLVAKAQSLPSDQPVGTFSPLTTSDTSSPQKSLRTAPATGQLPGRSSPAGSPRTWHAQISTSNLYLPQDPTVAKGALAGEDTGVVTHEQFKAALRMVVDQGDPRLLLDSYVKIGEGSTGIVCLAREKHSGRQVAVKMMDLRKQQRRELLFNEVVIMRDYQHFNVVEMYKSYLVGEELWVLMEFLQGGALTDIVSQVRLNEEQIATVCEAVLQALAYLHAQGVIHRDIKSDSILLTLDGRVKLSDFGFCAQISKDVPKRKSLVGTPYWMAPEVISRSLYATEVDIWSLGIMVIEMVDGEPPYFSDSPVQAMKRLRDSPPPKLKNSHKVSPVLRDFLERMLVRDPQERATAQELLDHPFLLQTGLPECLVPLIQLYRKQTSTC

Nc1n[nH]c(N)c1/N=N/c1ccc(O)cc1
GI50 [1]: 14.2 µM | GI50 [2]: 18.5 µM | GI50 [3]: 49.2 µM | Activity [4]: inactive | Activity [5]: 12% | Activity [6]: 27% | Activity [7]: 101% | Activity [8]: 93% | Activity [9]: 115% | Activity [10]: 72% | Activity [11]: 39% | Activity [12]: 31% | Activity [13]: 102% | Activity [14]: 97% | Activity [15]: 77% | Activity [16]: 62%
